Experimental data: PMC7837296, “A novel LysR‐type regulator negatively affects biosynthesis of the immunosuppressant brasilicardin” (Engineering in Life Sciences, 2020)

What was measured:
LysRNt (LysRNtHis6) [1] = molecular target: T1, LysRNt (LysRNtHis6) (Nocardia terpenica, UniProt A0A164MN72); test: EMSA with […]-labelled bra12p DNA; assay type: binding; settings: 500 nM protein, PBS, 1% ethanol
T1 construct: gene AWN90_33365; full length, C-terminal His6 tag kept (pET-21a(+)lysRNt), E. coli Rosetta 2(DE3), Talon column; only monomer seen; re-annotated start (not the N-terminally extended lysRlnNt)
T1 sequence (A0A164MN72 1-303): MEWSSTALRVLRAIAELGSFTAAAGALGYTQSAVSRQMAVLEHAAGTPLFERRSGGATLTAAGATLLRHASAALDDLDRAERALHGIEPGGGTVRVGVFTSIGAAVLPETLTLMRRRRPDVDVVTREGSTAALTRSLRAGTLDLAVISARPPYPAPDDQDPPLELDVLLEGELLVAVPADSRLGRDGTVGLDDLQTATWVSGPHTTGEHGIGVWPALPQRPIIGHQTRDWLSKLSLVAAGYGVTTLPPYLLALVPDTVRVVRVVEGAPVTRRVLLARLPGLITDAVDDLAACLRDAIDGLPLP

LysRNt (LysRNtHis6) [2] = molecular target: T1, LysRNt (LysRNtHis6); test: fluorescence thermal shift, SYPRO Orange; assay type: binding; settings: read-out: dTmD at 0.6 mM

In the case of `O=C(O)c1ccccc1O` [compound 4, salicylic acid], the “% DNA-protein complex remaining at 1 mM” value (LysRNt (LysRNtHis6) [1]; compound lowers DNA binding) is reported as 47% and the ΔTm at 600 µM (LysRNt (LysRNtHis6) [2]) is reported as 0.74 °C.

`O=C(O)c1cccc(O)c1` [compound 5, 3-hydroxybenzoic acid] was tested, and the “% DNA-protein complex remaining at 1 mM” value (LysRNt (LysRNtHis6) [1]; weak effect) was 86% and the ΔTm at 600 µM (LysRNt (LysRNtHis6) [2]) was 0.17 °C.

`O=C(O)c1ccccc1` [compound 2, sodium benzoate] was tested, and the “% DNA-protein complex remaining at 1 mM” value (LysRNt (LysRNtHis6) [1]; weak effect) was 84% and the ΔTm at 600 µM (LysRNt (LysRNtHis6) [2]) was 0.19 °C.
